According to ChEMBL document CHEMBL1126820, “4-alkylamino-3-bromo-N-alkyl-1,8-naphthalimides: new photochemically activatable antiviral compounds” (1993):

Experiments:
[1] = Concentration required for Photoinactivation of enveloped viruses; assay type: functional
Human alphaherpesvirus 1 = assay: Photoinactivation against simplex virus type 1; assay type: functional
[2] = test system: Human immunodeficiency virus 1; assay: Concentration required for Photoinactivation of cell-free HIV-1; assay type: functional, organism-based
[3] = test system: Human immunodeficiency virus 1; assay: Concentration required for Photoinactivation of cell-associated HIV-1; assay type: functional

SMILES | Activity [1] | Activity (Human alphaherpesvirus 1) | Activity [2] | Activity [3]
CCCCNc1c(Br)cc2c3c(cccc13)C(=O)N(CCCC)C2=O | 0.1 µM |  |  | 
CCCCCCNc1c(Br)cc2c3c(cccc13)C(=O)N(CCCCCC)C2=O | 0.1 µM |  |  | 
CCCCCCN1C(=O)c2cccc3c(NCCNC(=O)CCCCC(=O)NCCNc4c(Br)cc5c6c(cccc46)C(=O)N(CCCCCC)C5=O)c(Br)cc(c23)C1=O | 0.1 µM | <500 nM | 1 µM | 300 nM
CCCCCCCCNc1c(Br)cc2c3c(cccc13)C(=O)N(CCCCCCCC)C2=O | 0.1 µM |  |  | 
